Data as given in patent US11039613B2, “Germination promoters” (SYNGENTA PARTICIPATIONS AG, priority 2017, dated 2021).
Where two headings read alike, the source gives them in different places.

Columns and labels:
[1] = test system: NK Falkone corn seeds; assay: Corn seed germination, osmotic stress (PEG 2%) and cold stress (15° C.); assay type: in vivo; settings: osmotic (PEG 2%) and cold 15° C.
Experimental: (§1) NK Falkone corn seeds (harvested in 2015) were sorted by size using a sieve to keep away round seeds.
(§2) The corn seeds were placed in 24 well plates (each plate was considered as one experimental unit or replicate). Germination was initiated by the addition of 200 μl of distilled water containing 0.5% DMSO per well. 8 replicates (i.e. 8 plates) were used for each treatment characterization. Plates were sealed using seal foil (Polyolefin Art. Nr. 900320) from HJ-BIOANALYTIK. All plates were placed in two carrousels in a climatic chamber at 15° C. The experiment was laid out in a completely randomized design in climatic chamber with 60% Relative Humidity.
(§3) Germination was followed over time by taking photographs at different time points. Image analysis was performed automatically with a macro which was developed using the Image J software. A dynamic analysis of germination was carried out by fitting a logistic curve. Three parameters were calculated from the logistic curve: the T50; the slope and the plateau. All three parameters have a high agronomical relevance and are key requirements to ensure a good early crop-establishment. The T50 and slope for a selection of compounds are outlined in Table 2 below. All the values are expressed as percentages compared to an untreated control. All the three parameters are calculated considering 8 replicates and the kinetic parameters are separately determined for each germination curve. Data in bold indicate germination enhancing statistically significant differences between treated seeds and untreated control (p<0.05). T50 corresponds to the time needed for half of the seed population to germinate. Higher negative %-values indicate faster germination. Slope indicates how synchronous the germination of the seed population is. Positive values indicate steeper curve. The steeper the curve, the better and more uniform the germination is.
(§4) The effect of compounds of Formula (III-1 and P1) on the germination of NK Falkone corn seeds under salt and cold stress was evaluated as follows.
The experimental protocol was the same as in Example B1, except that germination was initiated by the addition of 200 μl of distilled water containing 0.5% DMSO and 2% PEG per well.

[2] = test system: NK Falkone corn seeds; assay: Corn seed germination, salt (NaCl, 100 mM) stress and optimal temperature (23° C.); assay type: in vivo; settings: salt (NaCl) stress
Experimental: as §1
The corn seeds were placed in 24 well plates (each plate was considered as one experimental unit or replicate). […] 8 replicates (i.e. 8 plates) were used for each treatment characterization. Plates were sealed using seal foil (Polyolefin Art. Nr. 900320) from HJ-BIOANALYTIK. All plates were placed in two carrousels in a climatic chamber at 15° C. The experiment was laid out in a completely randomized design in climatic chamber with 60% Relative Humidity.
as §3
The experimental protocol was the same as in Example B1, except that the plates were placed in a climatic chamber at 23° C.

[3] = test system: NK Falkone corn seeds; assay: Corn seed germination, salt (NaCl, 100 mM) and cold stresses (15° C.); assay type: in vivo; settings: cold 15° C. and salt 100 mM NaCl
Experimental: as §1, §2, §3, §4
The experimental protocol was the same as in Example B1, except that germination was initiated by the addition of 200 μl of distilled water containing 0.5% DMSO and 100 mM NaCl per well.

[4] = test system: NK Falkone corn seeds; assay: Corn seed germination, cold stress (15° C.); assay type: in vivo; settings: for T50 (% vs control): control T50 = 110 hours
Experimental: The effect of compounds of Formula (II-1 and III-1) on the germination of NK Falkone corn seeds under salt and cold stress was evaluated as follows.
as §1, §2, §3

[5] = Hydrolytic stability; assay type: physicochemical; settings: for half-life: aqueous buffer/acetonitrile solution, pH 9, pH 9, buffer/acetonitrile
Experimental: Prior to conducting the individual hydrolytic stability assays, stock solutions containing 1000 ppm of each test compound (i.e. compounds III-1 and P1) were prepared in acetonitrile.
The reagents used in the assays were prepared as follows. A 20 mM buffer solution was prepared from a stock solution of 20 mM mixed acetate, borate and phosphate buffer and the pH adjusted to 7 or 9 as required.
Test solutions were prepared in LC vials for each test compound in the following manner: Hydrolytic Stability: Buffer (750 μL)+acetonitrile (250 μL)+compound stock solution (2 to 40 μL).
The buffers were initially dispensed into separate glass LC vials, placed into an autosampler complete with thermostat set at 40° C. and allowed to equilibrate for 30 minutes prior to starting the individual assays.
Analysis was carried out on Waters LCMS systems under reverse phase conditions using 10 cm C18 columns and acetonitrile (HPLC grade) acidified water (0.2% formic acid) mobile phase at a flow rate of 1 ml min-1. Peak detection was at the optimum wavelength (230-250 nm) and peak areas were used for quantification
Reactions were initiated by addition of the compound solution and monitored through a series of repeat injections made directly from the vial into the HPLC system at regular time intervals. Initial and subsequent measurements of peak area attributable to the test compound were used to fit exponential half-lives and calculate first-order rate constants.
Consequently, the percentage of compound remaining was recorded at the last assessment time.

With `CC1=CC(O/C=C2/C(=O)NC3Cc4ccccc4C23)N(c2cc(C(F)(F)F)cc(C(F)(F)F)c2)C1=O` (stereo not drawn) [III-1, (1E)-[[1-[3,5-bis(trifluoromethyl)phenyl]-4-methyl-1-oxo-2H-pyrrol-2-yl]oxymethylene]-3,3a,4,8b-tetrahydroindeno[2,1-b]pyrrol-2-one] the “Slope (% vs control)” value ([1]; Rate 0.4 μM) was 1 % vs control, the “T50 (% vs control)” value ([1]; Rate 0.4 μM) was 0.8 % vs control and the “Slope (% vs control)” value ([1]; Rate 2 μM) was 3.9 % vs control. For the same compound, the “T50 (% vs control)” value ([1]; Rate 2 μM) was −0.2 % vs control, the “Slope (% vs control)” value ([1]; Rate 10 μM) was 7.6 % vs control and the “T50 (% vs control)” value ([1]; Rate 10 μM) was −3.6 % vs control. The “Slope (% vs control)” value ([1]; Rate 50 μM) was 23.8 % vs control, the “T50 (% vs control)” value ([1]; Rate 50 μM) was −4.0 % vs control and the “Slope compared with closest prior art compound P1” value ([1]; at equivalent rates, vs P1) was “higher slope”. For the same compound, the “T50 compared with closest prior art compound P1” value ([1]; at equivalent rates, vs P1) was “lower T50”, the “Slope (% vs control)” value ([2]; Rate 0.4 μM) was 1.2 % vs control and the “T50 (% vs control)” value ([2]; Rate 0.4 μM) was −0.5 % vs control. The “Slope (% vs control)” value ([2]; Rate 2 μM) was −0.4 % vs control, the “T50 (% vs control)” value ([2]; Rate 2 μM) was −0.2 % vs control and the “Slope (% vs control)” value ([2]; Rate 10 μM) was 85.8 % vs control. The “T50 (% vs control)” value ([2]; Rate 10 μM) was −11 % vs control, the “Slope (% vs control)” value ([2]; Rate 50 μM) was 132.5 % vs control and the “T50 (% vs control)” value ([2]; Rate 50 μM) was −15.9 % vs control. For the same compound, the “Slope compared with closest prior art compound P1” value ([2]; at equivalent rates, vs P1) was “higher slope”, the “T50 compared with closest prior art compound P1” value ([2]; at equivalent rates, vs P1) was “lower T50” and the “Slope (% vs control)” value ([3]; Rate 0.4 μM) was −4 % vs control. The “T50 (% vs control)” value ([3]; Rate 0.4 μM) was −0.5 % vs control, the “Slope (% vs control)” value ([3]; Rate 2 μM) was 7.4 % vs control and the “T50 (% vs control)” value ([3]; Rate 2 μM) was −1.2 % vs control. The “Slope (% vs control)” value ([3]; Rate 10 μM) was 54.1 % vs control, the “T50 (% vs control)” value ([3]; Rate 10 μM) was −9.3 % vs control and the “Slope (% vs control)” value ([3]; Rate 50 μM) was 114.7 % vs control. The “T50 (% vs control)” value ([3]; Rate 50 μM) was −6.1 % vs control, the “Slope (% vs control)” value ([4]; Rate 0.4 μM) was 7.3 % vs control and the “T50 (% vs control)” value ([4]; Rate 0.4 μM) was −0.7 % vs control. The “Slope (% vs control)” value ([4]; Rate 2 μM) was 14.3 % vs control, the “T50 (% vs control)” value ([4]; Rate 2 μM) was 1.3 % vs control and the “Slope (% vs control)” value ([4]; Rate 10 μM) was 82.6 % vs control. For the same compound, the “T50 (% vs control)” value ([4]; Rate 10 μM) was −8.5 % vs control, the “Slope (% vs control)” value ([4]; Rate 50 μM) was 175.6 % vs control and the “T50 (% vs control)” value ([4]; Rate 50 μM) was −10.1 % vs control. For the same compound, the “Slope compared with closest prior art compound P1” value ([4]; at equivalent rates, vs P1) was “higher slope”, the half-life ([5]; 40° C., less polar isomer, read-out: Hydrolytic stability pH9 (t½), less polar isomer (converted)) was greater than 59 h and the half-life ([5]; 40° C., more polar isomer, read-out: Hydrolytic stability pH9 (t½), more polar isomer) was greater than 59 h. For the same compound, the “% remaining, less polar isomer” value ([5]; pH 9, 40° C., at 17.6 hours, less polar isomer) was 97.5% remaining at 17.6 hours, the “% remaining, more polar isomer” value ([5]; pH 9, 40° C., at 17.6 hours, more polar isomer) was 94.9% remaining at 17.6 hours and the “Hydrolytic stability compared with less polar isomer of P1” value ([5]; pH 9, less polar isomer, vs P1) was “more stable”.
